The results in this text go back to US8722849B2, “Polypeptides” (Novo Nordisk A/S, priority 2011, dated 2014).

The nature of data set [1]: Assay (IV) determination of solubility. It is filed as physicochemical. The method in brief: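 Polypeptide in water (~500 nmol/ml) mixed 1:1 with 100 mM glycylglycine (pH 3.0–5.0) or bistrispropane (pH 6.0–8.0) buffers. Held 18 hours at room temperature, then centrifuged. Polypeptide remaining in solution quantified by HPLC.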
The target of data set [2] is T1, human amylin receptor (amylin 3(a) receptor: human calcitonin receptor + RAMP-3) (Homo sapiens, UniProt O60896+P30988).
T1 construct: expressed in transfected cells; host or cells: BHK570
T1 sequence (P30988 25-474): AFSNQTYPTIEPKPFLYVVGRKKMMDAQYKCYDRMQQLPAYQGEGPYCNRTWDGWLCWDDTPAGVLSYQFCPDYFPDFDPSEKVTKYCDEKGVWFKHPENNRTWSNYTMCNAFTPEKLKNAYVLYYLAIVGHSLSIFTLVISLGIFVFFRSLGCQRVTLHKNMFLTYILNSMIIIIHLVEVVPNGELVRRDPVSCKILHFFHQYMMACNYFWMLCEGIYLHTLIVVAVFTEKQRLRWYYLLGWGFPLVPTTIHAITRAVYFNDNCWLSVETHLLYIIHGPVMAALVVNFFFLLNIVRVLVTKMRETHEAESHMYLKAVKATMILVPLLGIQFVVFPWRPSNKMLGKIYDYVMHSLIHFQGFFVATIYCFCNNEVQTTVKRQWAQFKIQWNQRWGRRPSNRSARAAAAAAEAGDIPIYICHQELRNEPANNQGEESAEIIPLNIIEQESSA
T1 sequence (O60896 24-148 partner): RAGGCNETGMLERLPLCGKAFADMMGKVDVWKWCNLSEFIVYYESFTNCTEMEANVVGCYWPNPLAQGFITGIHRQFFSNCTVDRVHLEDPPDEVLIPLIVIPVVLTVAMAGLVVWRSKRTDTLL
Kind of data set: Assay (II)a functional CRE-luciferase assay, human amylin receptor. It is filed as cell-based.

Data set [3] has as its target T2, human calcitonin receptor (Homo sapiens, UniProt P30988).
T2 construct: expressed in transfected cells; host or cells: BHK570
T2 sequence (P30988 25-474): T1 sequence (P30988 25-474)
The experiment in a line: Assay (II)a functional CRE-luciferase assay, human calcitonin receptor. It is filed as cell-based.

The mark [4] stands for this setting: bistrispropane buffer, pH 6, pH 6.0, read-out: Solubility pH 6.0.
[5] abbreviates: bistrispropane buffer, pH 6.5, pH 6.5, read-out: Solubility pH 6.5.
The mark [6] stands for this setting: bistrispropane buffer, pH 7, pH 7.0, 18 hours at room temperature, Table 3, read-out: Solubility pH 7.0.
[7] abbreviates: bistrispropane buffer, pH 7, pH 7.0, read-out: Solubility pH 7.0.
Setting [8] is: bistrispropane buffer, pH 7.5, pH 7.5, read-out: Solubility pH 7.5.
The mark [9] stands for this setting: bistrispropane buffer, pH 8, pH 8.0, read-out: Solubility pH 8.0.
Where [10] appears, read: glycylglycine buffer, pH 3, pH 3.0, read-out: Solubility pH 3.0.
[11] abbreviates: glycylglycine buffer, pH 4, pH 4.0, 18 hours at room temperature, Table 2, read-out: Solubility pH 4.0.
[12] abbreviates: glycylglycine buffer, pH 4, pH 4.0, read-out: Solubility pH 4.0.
The mark [13] stands for this setting: glycylglycine buffer, pH 5, pH 5.0, read-out: Solubility pH 5.0.
Setting [14] is: Table 2, BHK amylin 3(a)-receptor/CRE-luc cells.
The mark [15] stands for this setting: Table 7, human calcitonin (CTa) receptor.

Read-outs that look alike come from different tables or passages of the source. Starred links: 1 amine or outer side, 2 acyl side, 3 side chain; linkers in the order of their positions; H or OH if unused. Positions of bridges follow the written chain, without caps; N, C: chain ends. Residues, ends and D or L forms follow the SMILES beside them. *: point of attachment. C20 diacid = O=C(O)CCCCCCCCCCCCCCCCCCC(=O)*; γGlu = O=C(O)[C@H](CCC(=O)[*:2])N[*:1]; AEEA = NCCOCCOCC(=O)O

By solubility is commonly meant the dissolved amount per volume that the medium holds. One may read the EC50 as the midpoint of the concentration-response curve.

As for `CC[C@H](C)[C@H](NC(=O)[C@@H]1CCCN1C(=O)CNC(=O)[C@H](Cc1ccccc1)NC(=O)[C@H](CC(N)=O)NC(=O)[C@H](CCC(N)=O)NC(=O)[C@H](CO)NC(=O)[C@H](CO)NC(=O)[C@H](Cc1c[nH]cn1)NC(=O)[C@H](CCCNC(=N)N)NC(=O)[C@H](CC(C)C)NC(=O)[C@H](Cc1ccccc1)NC(=O)[C@H](CCC(=O)O)NC(=O)[C@H](C)NC(=O)[C@H](CC(C)C)NC(=O)[C@H](CCCNC(=N)N)NC(=O)[C@H](CCC(N)=O)NC(=O)[C@@H](NC(=O)[C@H](C)NC(=O)[C@@H]1CSSC[C@H](NC(=O)[C@H](CCCNC(=N)N)NC(=O)[C@H](CCC(=O)O)NC(=O)[C@H](CCC(=O)O)NC(=O)CC[C@H](NC(=O)CCCCCCCCCCCCCCCCCCC(=O)O)C(=O)O)C(=O)N[C@@H](CC(N)=O)C(=O)N[C@@H]([C@@H](C)O)C(=O)N[C@@H](C)C(=O)N[C@@H]([C@@H](C)O)C(=O)N1)[C@@H](C)O)C(=O)N[C@@H](CC(C)C)C(=O)N1CCC[C@H]1C(=O)N1CCC[C@H]1C(=O)N[C@H](C(=O)N[C@@H](CC(N)=O)C(=O)N[C@H](C(=O)NCC(=O)N[C@@H](CO)C(=O)N[C@@H](CC(N)=O)C(=O)N[C@H](C(=O)N1CCC[C@H]1C(N)=O)[C@@H](C)O)C(C)C)[C@@H](C)O` [Example 157, N-alpha-[(S)-4-Carboxy-4-(19-carboxynonadecanoylamino)butyryl]-Glu-Glu-[Arg1,Glu14,Arg17,Gln21,Pro37]-pramlintide] ({C20 diacid-γGlu}-EERCNTATCATQRLAEFLRHSSQNFGPILPPTNVGSNTP-NH2; disulfide 4-9 (inferred); C-terminus assumed), the solubility at 18 h in data set [1] (setting [4]), in data set [1] (setting [5]), in data set [1] (setting [6]), in data set [1] (setting [7]), in data set [1] (setting [8]) and in data set [1] (setting [9]) was > 200 µM in each case. The solubility at 18 h in data set [1] (setting [10]), in data set [1] (setting [11]), in data set [1] (setting [12]) and in data set [1] (setting [13]) was > 200 µM each time. The concentration for a half-maximal effect (EC50) in data set [2] (setting [14]) is 0.465 nM; in data set [3] (setting [15]), 0.547 nM.

Consider `CC[C@H](C)[C@H](NC(=O)[C@@H]1CCCN1C(=O)CNC(=O)[C@H](Cc1ccccc1)NC(=O)[C@H](CC(N)=O)NC(=O)[C@H](CCC(N)=O)NC(=O)[C@H](CO)NC(=O)[C@H](CO)NC(=O)[C@H](Cc1c[nH]cn1)NC(=O)[C@H](CCCNC(=N)N)NC(=O)[C@H](CC(C)C)NC(=O)[C@H](Cc1ccccc1)NC(=O)[C@H](CCC(=O)O)NC(=O)[C@H](C)NC(=O)[C@H](CC(C)C)NC(=O)[C@H](CCCNC(=N)N)NC(=O)[C@H](CCC(N)=O)NC(=O)[C@@H](NC(=O)[C@H](C)NC(=O)[C@@H]1CSSC[C@H](NC(=O)[C@H](CCCNC(=N)N)NC(=O)[C@H](CCC(=O)O)NC(=O)[C@H](CCC(=O)O)NC(=O)CC[C@H](NC(=O)CCCCCCCCCCCCCCCCCCC(=O)O)C(=O)O)C(=O)N[C@@H](CC(N)=O)C(=O)N[C@@H]([C@@H](C)O)C(=O)N[C@@H](C)C(=O)N[C@@H]([C@@H](C)O)C(=O)N1)[C@@H](C)O)C(=O)N[C@@H](CC(C)C)C(=O)N1CCC[C@H]1C(=O)N1CCC[C@H]1C(=O)N[C@H](C(=O)N[C@@H](CC(N)=O)C(=O)N[C@H](C(=O)NCC(=O)N[C@@H](CO)C(=O)N[C@@H](CCC(N)=O)C(=O)N[C@H](C(=O)N1CCC[C@H]1C(N)=O)[C@@H](C)O)C(C)C)[C@@H](C)O` [Example 158, N-alpha-[(S)-4-Carboxy-4-(19-carboxynonadecanoylamino)butyryl]-Glu-Glu-[Arg1,Glu14,Arg17,Gln21,Gln35,Pro37]-pramlintide] ({C20 diacid-γGlu}-EERCNTATCATQRLAEFLRHSSQNFGPILPPTNVGSQTP-NH2; disulfide 4-9 (inferred)), for which the solubility at 18 h in data set [1] (setting [4]), in data set [1] (setting [5]), in data set [1] (setting [6]), in data set [1] (setting [7]), in data set [1] (setting [8]) and in data set [1] (setting [9]) was > 200 µM in each case. Moreover, the solubility at 18 h in data set [1] (setting [10]), in data set [1] (setting [11]), in data set [1] (setting [12]) and in data set [1] (setting [13]) was > 200 µM in each case. The concentration giving a half-maximal response (EC50) in data set [2] (setting [14]) is 1.13 nM; in data set [3] (setting [15]), 1.19 nM.

On to `CC[C@H](C)[C@H](NC(=O)[C@@H]1CCCN1C(=O)CNC(=O)[C@H](Cc1ccccc1)NC(=O)[C@H](CC(N)=O)NC(=O)[C@H](CCC(=O)O)NC(=O)[C@H](CO)NC(=O)[C@H](CO)NC(=O)[C@H](Cc1c[nH]cn1)NC(=O)[C@H](Cc1c[nH]cn1)NC(=O)[C@H](CC(C)C)NC(=O)[C@H](Cc1ccccc1)NC(=O)[C@H](CCC(=O)O)NC(=O)[C@H](C)NC(=O)[C@H](CC(C)C)NC(=O)[C@H](CCCNC(=N)N)NC(=O)[C@H](CCC(N)=O)NC(=O)[C@@H](NC(=O)[C@H](C)NC(=O)[C@@H]1CSSC[C@H](NC(=O)[C@H](CCCCN)NC(=O)COCCOCCNC(=O)COCCOCCNC(=O)CC[C@H](NC(=O)CCCCCCCCCCCCCCCCCCC(=O)O)C(=O)O)C(=O)N[C@@H](CC(N)=O)C(=O)N[C@@H]([C@@H](C)O)C(=O)N[C@@H](C)C(=O)N[C@@H]([C@@H](C)O)C(=O)N1)[C@@H](C)O)C(=O)N[C@@H](CC(C)C)C(=O)N1CCC[C@H]1C(=O)N1CCC[C@H]1C(=O)N[C@H](C(=O)N[C@@H](CC(N)=O)C(=O)N[C@H](C(=O)NCC(=O)N[C@@H](CO)C(=O)N[C@@H](CC(N)=O)C(=O)N[C@H](C(=O)N1CCC[C@H]1C(N)=O)[C@@H](C)O)C(C)C)[C@@H](C)O` [Example 167] ({C20 diacid-γGlu-AEEA-AEEA}-KCNTATCATQRLAEFLHHSSENFGPILPPTNVGSNTP-NH2; disulfide 2-7), for which the solubility is > 200 µM in data set [1] (pH 3, pH 3.0, read-out: Solubility pH 3.0); > 200 µM in data set [1] (pH 4, pH 4.0, 18 hours at room temperature, Table 2, read-out: Solubility pH 4.0); > 200 µM in data set [1] (pH 4, pH 4.0, read-out: Solubility pH 4.0); > 200 µM in data set [1] (pH 5, pH 5.0, read-out: Solubility pH 5.0); > 200 µM in data set [1] (pH 6, pH 6.0, read-out: Solubility pH 6.0); > 200 µM in data set [1] (pH 6.5, pH 6.5, read-out: Solubility pH 6.5). In addition, the solubility was > 200 µM in data set [1] (pH 7, pH 7.0, 18 hours at room temperature, Table 3, read-out: Solubility pH 7.0); > 200 µM in data set [1] (pH 7, pH 7.0, read-out: Solubility pH 7.0); > 200 µM in data set [1] (pH 7.5, pH 7.5, read-out: Solubility pH 7.5); > 200 µM in data set [1] (pH 8, pH 8.0, read-out: Solubility pH 8.0). Besides, the concentration for a half-maximal effect (EC50) in data set [2] (setting [14]) turned out to be 0.203 nM; in data set [2] (Table 3, BHK amylin 3(a)-receptor/CRE-luc cells), 0.203 nM; in data set [2] (Table 4), 0.203 nM; in data set [2] (Table 6, human amylin receptor), 0.203 nM; in data set [2] (Table 7, human amylin receptor), 0.203 nM; in data set [2] (Table 11), 0.203 nM. Moreover, the concentration giving a half-maximal response (EC50) in data set [3] (setting [15]) was 0.113 nM; in data set [3] (Table 11, read-out: CTa receptor human EC50), 0.113 nM.
